Test results: patent US20260102387A1, “IMMUNOSUPPRESSIVE COMPOUNDS” (UNIVERSITÄT BASEL, priority 2022, published 2026)
Like-named read-outs stand apart in the source and are kept apart here.

How the values were obtained:
coronin 1 promoter [1] = test: Fluorescence-based screening assay: coronin 1 promoter driven GFP in RBL cells (microplate reader / microscopy); type: cell-based; details: RBL, 48 h, read-out: GFP values (%)
Description: The murine coronin 1 promoter sequences of SEQ ID NO: 1-6 were each cloned into a plasmid lacking a promoter (promoterless) but containing a destabilized Green Fluorescence Protein (GFP) cassette. Rat Basophil Leukemia (RBL) cells were transfected with the plasmids, stable GFP expressing cells were enriched, incubated with various compounds and assessed for coronin 1 promoter inhibition by assessing green fluorescence values (FIG. 2).
The plasmids were independently transfected into immune cells (Rat basophil Leukemia, RBL cells) to generate green and red fluorescent RBL cells that were subsequently enriched by means of flow cytometry. These cells were then mixed in equal ratio (1:1) and incubated in a 96 well plate at 100,000 cells/well in a volume of 200 μl of phenol red free RPMI supplemented with 8% fetal calf serum, L-glutamate and antibiotics (penicillin, […]) from available chemical libraries. At defined time points (8 h, 24 h and 48 h), the GFP and RFP fluorescence was measured using a 96 well microplate reader (Synergy, BioTek Instruments). […] Selected compounds show different levels of modulation of coronin 1 promoter driven GFP and CMV promoter driven RFP fluorescence. GFP and RFP fluorescence were analyzed with a microplate reader upon incubation with the top coronin 1 promoter inhibiting compounds. Shown are percentage of GFP reduction (left column) and percentage of RFP reduction (right column) for the compounds at 5 μg/ml concentration at 48 h. Cycloheximide (CHX) serves as positive control whereas media and DMSO serve as negative controls. […] Cells were imaged using a fluorescence microscope to validate fluorescence inhibition (FIG. 3A) and as well assess morphology and viability (in addition to GFP down regulation confirmation). In addition, quantitative Polymerase Chain Reaction (qPCR) for coronin 1 mRNA transcripts reveal reduction with compound 11 (FIG. 3B). The primers used for the qPCR on RBL cells are listed below as follows;

[2] = system: early cytomegalovirus promoter; test: Screening assay control: CMV promoter driven RFP in RBL cells (microplate reader); type: cell-based; details: 48 h
Description: As an unrelated promoter, the early cytomegaloviral promoter element was cloned into a promoterless Red Fluorescence Protein (RFP) expression plasmid. Rat Basophil Leukemia (RBL) cells were transfected with the plasmid, stable RFP expressing cells enriched, incubated with various compounds and were assessed for red fluorescence values. Analyzing the inhibition of an unrelated promoter (in this case, early cytomegalovirus promoter) that drove Red Fluorescence Protein (RFP) expression assessed non-specificity of the compound under analysis.
The plasmids were independently transfected into immune cells (Rat basophil Leukemia, RBL cells) to generate green and red fluorescent RBL cells that were subsequently enriched by means of flow cytometry. These cells were then mixed in equal ratio (1:1) and incubated in a 96 well plate at 100,000 cells/well in a volume of 200 μl of phenol red free RPMI supplemented with 8% fetal calf serum, L-glutamate and antibiotics (penicillin, streptomycin) and various compounds (3 and 5 μg/ml concentrations) from available chemical libraries. At defined time points (8 h, 24 h and 48 h), the GFP and RFP fluorescence was measured using a 96 well microplate reader (Synergy, BioTek Instruments). […] Selected compounds show different levels of modulation of coronin 1 promoter driven GFP and CMV promoter driven RFP fluorescence. GFP and RFP fluorescence were analyzed with a microplate reader upon incubation with the top coronin 1 promoter inhibiting compounds. Shown are percentage of GFP reduction (left column) and percentage of RFP reduction (right column) for the compounds at 5 μg/ml concentration at 48 h. Cycloheximide (CHX) serves as positive control whereas media and DMSO serve as negative controls. […] Cells were imaged using a fluorescence microscope to validate fluorescence inhibition (FIG. 3A) and as well assess morphology and viability (in addition to GFP down regulation confirmation). In addition, quantitative Polymerase Chain Reaction (qPCR) for coronin 1 mRNA transcripts reveal reduction with compound 11 (FIG. 3B). The primers used for the qPCR on RBL cells are listed below as follows;

coronin 1 promoter [3] = test: EC50 analysis for coronin 1 promoter driven GFP inhibition by flow cytometry in RBL cells; type: cell-based; details: RBL cells, 48-65 h, flow cytometry
Description: RBL cells that had been incubated with the indicated calcium channel blockers (amlodipine (3.125 μM) and verapamil (8 μM) concentrations for 48 h were analyzed by flow cytometry for any alteration in coronin 1 promoter driven GFP fluorescence. The results reveal no effect of calcium channel blockers on coronin 1 promoter activity (FIG. 4).
(§1) RBL cells expressing GFP under coronin 1 promoter and optionally with RBL cells expressing RFP under CMV promoter were mixed in equal numbers and incubated with the compounds at indicated concentrations for 48-65 h and analyzed by flow cytometry for alteration in coronin 1 promoter (GFP fluorescence), CMV promoter (RFP fluorescence) values. In addition, the cells were labelled with live-dead marker for assessing cell viability status by flow cytometry. Cycloheximide (CHX) serves as positive control and DMSO serves as negative controls. Effective Concentration (EC50) values for coronin 1 promoter inhibition via GFP fluorescence analysis, non-specific promoter inhibition via CMV promoter driven-RFP fluorescence analysis and cell viability via live/dead staining as a measure for toxicity in flow cytometry for compounds (10-22 and 50a-65a) are shown in Table 6 and Table 7. Based on the EC50 analysis of the inhibition of coronin 1 promoter driven GFP fluorescence the (4S,7R)-configurated eutomers were identified (Structures FIG. 9A-C). This is exemplified for compounds containing two stereocenters by eutomers 11c and 13a. […] Subsequent EC50 evaluations (Table 7) were performed with compound 13a as standard for relative potency normalized to a value of 1.00 (relative potency calculated as [EC50 GFP inhibition 13a]/[EC50 GFP inhibition compound of interest]).

RBL cells = test: Cell viability by live-dead staining (cytotoxicity), flow cytometry; type: cell-based, Rat; details: cell viability via live/dead staining, 48-65 h, read-out: EC50 Toxicity
Description: as §1

[4] = 5 μg/ml, microplate reader, DMSO = 100
[5] = 5 μg/ml, microplate reader, DMSO = 100, read-out: RFP values (%)

SMILES | EC50 (RBL cells; Rattus norvegicus, RBL) [nM] | EC50 (coronin 1 promoter [3]; RBL) [nM] | further results
CC1=C(C(=O)OCC2CCCO2)C(c2ccsc2)C2=C(C[C@@H](c3cccs3)CC2=O)N1 (mixture of isomers) [Comp. 7, tetrahydro-2-furanylmethyl-2-methyl-5-oxo-7-(2-thienyl)-4-(3-thienyl)-1,4,5,6,7,8-hexahydro-3-quinolinecarboxylate] | – | – | activity at 5 µg/mL (coronin 1 promoter [1]; [4]): 77%; activity at 5 µg/mL [2, 5]: 95%
COC(=O)C1=C(C)NC2=C(C(=O)C[C@H](c3ccccc3OC)C2)[C@@H]1c1cccc(O)c1 (stereo in doubt) [11a, methyl-4-(3-hydroxyphenyl)-7-(2-methoxyphenyl)-2-methyl-5-oxo-1,4,5,6,7,8-hexahydro-3-quinolinecarboxylate] | > 9000 | – | EC50 (coronin 1 promoter [3]): 500 nM
COC(=O)C1=C(C)NC2=C(C(=O)C[C@H](c3ccccc3OC)C2)[C@H]1c1cccc(O)c1 (stereo in doubt) [11b, methyl-4-(3-hydroxyphenyl)-7-(2-methoxyphenyl)-2-methyl-5-oxo-1,4,5,6,7,8-hexahydro-3-quinolinecarboxylate] | > 36000 | > 36000 | –
COc1ccccc1[C@H]1CC(=O)C2=C(C1)NC(C)=C(C(=O)OCC1CCCO1)[C@H]2c1cccc(O)c1 (stereo in doubt) [12a, tetrahydro-2-furanylmethyl-4-(3-hydroxyphenyl)-7-(2-methoxyphenyl)-2-methyl-5-oxo-1,4,5,6,7,8-hexahydro-3-quinolinecarboxylate] | > 30000 | 200 | –
COc1ccccc1[C@H]1CC(=O)C2=C(C1)NC(C)=C(C(=O)OCC1CCCO1)[C@@H]2c1cccc(O)c1 (stereo in doubt) [12b, tetrahydro-2-furanylmethyl-4-(3-hydroxyphenyl)-7-(2-methoxyphenyl)-2-methyl-5-oxo-1,4,5,6,7,8-hexahydro-3-quinolinecarboxylate] | > 30000 | > 30000 | –
COC(=O)C1=C(C)NC2=C(C(=O)C[C@H](c3ccccc3OC)C2)[C@@H]1c1cccc(O)c1 [11c, methyl (4S, 7R)-4-(3-hydroxyphenyl)-7-(2-methoxyphenyl)-2-methyl-5-oxo-1,4,5,6,7,8-hexahydro-3-quinolinecarboxylate] | – | – | EC50 (coronin 1 promoter [3]): 175 nM; EC50 (RBL cells): > 9000 nM
COC(=O)C1=C(C)NC2=C(C(=O)C[C@@H](c3ccccc3OC)C2)[C@H]1c1cccc(O)c1 [11d, methyl-4-(3-hydroxyphenyl)-7-(2-methoxyphenyl)-2-methyl-5-oxo-1,4,5,6,7,8-hexahydro-3-quinolinecarboxylate] | > 18000 | 2000 | –
COc1ccccc1[C@@H]1CC(=O)C2=C(C1)NC(C)=C(C(=O)OC[C@@H]1CCCO1)[C@@H]2c1cccc(O)c1 [12f, tetrahydro-2-furanylmethyl-4-(3-hydroxyphenyl)-7-(2-methoxyphenyl)-2-methyl-5-oxo-1,4,5,6,7,8-hexahydro-3-quinolinecarboxylate] | > 2000 | 2500 | –
C[C@@H]1C[C@@H]([C@H](O)CC2CC(=O)NC(=O)C2)C(=O)[C@@H](C)C1 [CHX, cycloheximide, reference compound] | – | – | activity at 5 µg/mL (coronin 1 promoter [1]): 21%; activity at 5 µg/mL ([2]; read-out: RFP values (%)): 40%
COc1ccccc1C1CC(=O)C2=C(C1)NC(C)=C(C(=O)OCC1CCCO1)C2c1cccs1 (stereo not drawn) [Comp. 1, tetrahydro-2-furanylmethyl-7-(2-methoxyphenyl)-2-methyl-5-oxo-4-(2-thienyl)-1,4,5,6,7,8-hexahydro-3-quinolinecarboxylate] | – | – | activity at 5 µg/mL (coronin 1 promoter [1]; [4]): 35%; activity at 5 µg/mL [2, 5]: 66%
COC(=O)C1=C(C)NC2=C(C(=O)CC(c3ccccc3OC)C2)C1c1ccc(F)cc1 (stereo not drawn) [Comp. 2, methyl-4-(4-fluorophenyl)-7-(2-methoxyphenyl)-2-methyl-5-oxo-1,4,5,6,7,8-hexahydro-3-quinolinecarboxylate] | – | – | activity at 5 µg/mL (coronin 1 promoter [1]; [4]): 52%; activity at 5 µg/mL [2, 5]: 81%
COC(=O)C1=C(C)NC2=C(C(=O)CC(c3ccccc3OC)C2)C1c1ccccc1 (stereo not drawn) [compound 14, methyl 7-(2-methoxyphenyl)-2-methyl-5-oxo-4-phenyl-1,4,5,6,7,8-hexahydroquinoline-3-carboxylate] | > 6000 | 250 | –
COC(=O)C1=C(C)NC2=C(C(=O)CC(c3ccccc3OC)C2)C1c1cccc(OC)c1 (stereo not drawn) [compound 15, methyl 7-(2-methoxyphenyl)-4-(3-methoxyphenyl)-2-methyl-5-oxo-1,4,5,6,7,8-hexahydroquinoline-3-carboxylate] | > 15000 | 1200 | –
COC(=O)C1=C(C)NC2=C(C(=O)CC(c3ccccc3OC)C2)C1c1ccccc1O (stereo not drawn) [compound 16, methyl 4-(2-hydroxyphenyl)-7-(2-methoxyphenyl)-2-methyl-5-oxo-1,4,5,6,7,8-hexahydroquinoline-3-carboxylate] | > 7500 | 900 | –
COCCCCOC(=O)C1=C(C)NC2=C(C(=O)CC(c3ccccc3OC)C2)C1c1cccc(O)c1 (stereo not drawn) [compound 17, 4-methoxybutyl 4-(3-hydroxyphenyl)-7-(2-methoxyphenyl)-2-methyl-5-oxo-1,4,5,6,7,8-hexahydroquinoline-3-carboxylate] | > 5000 | 100 | –
COc1ccccc1C1CC(=O)C2=C(C1)NC(C)=C(C(=O)OCC1CC(C)(C)OC(C)(C)C1)C2c1cccc(O)c1 (stereo not drawn) [compound 19, (2,2,6,6-tetramethyltetrahydro-2H-pyran-4-yl)methyl 4-(3-hydroxyphenyl)-7-(2-methoxyphenyl)-2-methyl-5-oxo-1,4,5,6,7,8-hexahydroquinoline-3-carboxylate] | > 2500 | 160 | –
COc1ccccc1C1CC(=O)C2=C(C1)NC(C)=C(C(=O)OC1COC1)C2c1cccc(O)c1 (stereo not drawn) [compound 20, oxetan-3-yl 4-(3-hydroxyphenyl)-7-(2-methoxyphenyl)-2-methyl-5-oxo-1,4,5,6,7,8-hexahydroquinoline-3-carboxylate] | > 2500 | 500 | –
COc1ccccc1C1CC(=O)C2=C(C1)NC(C)=C(C(=O)OC(C)(C)C)C2c1cccc(O)c1 (stereo not drawn) [compound 21, tert-butyl 4-(3-hydroxyphenyl)-7-(2-methoxyphenyl)-2-methyl-5-oxo-1,4,5,6,7,8-hexahydroquinoline-3-carboxylate] | > 2500 | 280 | –
